Results: ChEMBL document CHEMBL4680272 (Eur J Med Chem, 2020)
The source made the active and inactive calls. The rule behind the calls is not given here.

What was measured:
[1] = test system: Influenza A virus (A/Anhui/1/2005(H5N1)); test: Inhibition of Influenza A virus (A/Anhui/1/2005(H5N1) Neuraminidase using MUNANA as substrate at 10 uM preincubated for 5 to 15 mins followed by substrate addition and measured after 30 mins by fluorescence spectrophotometric method; settings: time 35-45 min
[2] = test system: Influenza A virus (A/Anhui/1/2005(H5N1)); test: Inhibition of Influenza A virus (A/Anhui/1/2005(H5N1) Neuraminidase using MUNANA as substrate at 100 uM preincubated for 5 to 15 mins followed by substrate addition and measured after 30 mins by fluorescence spectrophotometric method; settings: time 35-45 min
[3] = Inhibition of Influenza A virus (A/Anhui/1/2005(H5N1) Neuraminidase using MUNANA as substrate preincubated for 5 to 15 mins followed by substrate addition and measured after 30 mins by fluorescence spectrophotometric method
[4] = Inhibition of Influenza A virus (A/Babol/36/2005 (H3N2)) Neuraminidase using MUNANA as substrate preincubated for 5 to 15 mins followed by substrate addition and measured after 30 mins by fluorescence spectrophotometric method
[5] = AUC in Sprague-Dawley rat at 10 mg/kg, iv measured for 24 hrs by LC-MS/MS analysis; assay type: ADME, organism-based; design: dose 10 mg/kg, time 24 hrs; settings: in vivo
[6] = Bioavailability in Sprague-Dawley rat at 10 mg/kg, iv measured for 24 hrs by LC-MS/MS analysis; assay type: ADME, organism-based; settings: in vivo
[7] = Inhibition of Influenza A virus (A/California/04/2009 (H1N1)) Neuraminidase using MUNANA as substrate preincubated for 5 to 15 mins followed by substrate addition and measured after 30 mins by fluorescence spectrophotometric method
[8] = AUC in Sprague-Dawley rat at 10 mg/kg, po measured for 24 hrs by LC-MS/MS analysis; assay type: ADME, organism-based; design: time 24 hrs, dose 10 mg/kg; settings: in vivo
[9] = Tmax in Sprague-Dawley rat at 10 mg/kg, po by LC-MS/MS analysis; assay type: ADME, organism-based; settings: in vivo
[10] = Cmax in Sprague-Dawley rat at 10 mg/kg, po measured for 24 hrs by LC-MS/MS analysis; assay type: ADME, organism-based; design: route oral, dose 10 mg/kg, time 24 hrs; settings: in vivo
in vivo = settings: Sprague-Dawley, rat, iv, 10 mg/kg
[11] = Oral bioavailability in ferret; assay type: ADME, organism-based, Mustela putorius furo; settings: in vivo
[12] = human, plasma
in vitro [13] = settings: human, plasma
[14] = Oral bioavailability in rat; assay type: ADME, organism-based; settings: in vivo
[15] = AUC in Sprague-Dawley rat at 50 mg/kg, po measured for 24 hrs by LC-MS/MS analysis; assay type: ADME, organism-based; design: time 24 hrs, dose 50 mg/kg; settings: in vivo
[16] = Tmax in Sprague-Dawley rat at 50 mg/kg, po by LC-MS/MS analysis; assay type: ADME, organism-based; settings: in vivo
[17] = Cmax in Sprague-Dawley rat at 50 mg/kg, po measured for 24 hrs by LC-MS/MS analysis; assay type: ADME, organism-based; design: route oral, dose 50 mg/kg, time 24 hrs; settings: in vivo
[18] = Half life in Sprague-Dawley rat at 50 mg/kg, po measured for 24 hrs by LC-MS/MS analysis; assay type: ADME, organism-based; settings: in vivo
[19] = Oral bioavailability in Sprague-Dawley rat at 50 mg/kg measured for 24 hrs by LC-MS/MS analysis; assay type: ADME, organism-based; settings: in vivo
[20] = human, plasma, 2 h
in vitro [21] = settings: mouse, liver microsomes
in vitro [22] = settings: mouse, liver microsomes; remark: listed apart in the source
in vitro [23] = settings: rat, liver microsomes
in vitro [24] = settings: rat, liver microsomes; remark: listed apart in the source
in vitro [25] = settings: human, liver microsomes
in vitro [26] = settings: human, liver microsomes; remark: listed apart in the source
in vitro [27] = settings: human, plasma; remark: listed apart in the source
in vitro [28] = settings: human, plasma; remark: listed apart in the source

Compound: CCC(CC)O[C@@H]1C=C(C(=O)O)C[C@H](NC(=O)NCc2ccc(C#N)cc2)[C@H]1NC(C)=O
- inhibition [1]: inactive
- inhibition [2]: 32.5%

Compound: CCC(CC)O[C@@H]1C=C(C(=O)O)C[C@H](NC(=S)Nc2ccccc2)[C@H]1NC(C)=O
- inhibition [1]: 16.6%
- inhibition [2]: 47.1%

Compound: CCC(CC)O[C@@H]1C=C(C(=O)O)C[C@H](N)[C@H]1NC(C)=O [OSELTAMIVIR CARBOXYLATE]
- IC50 [3]: 210 nM
- IC50 [4]: 41.7 nM
- AUC at 24 h [5]: 8400 ng·h/mL
- F [6]: 100%
- IC50 [7]: 2500 nM
- AUC at 24 h [8]: 300 ng·h/mL
- Tmax [9]: 4 h
- Cmax [10]: 30 ng/mL
- half-life at 24 h (in vivo): 1.6 h

Compound: CCC(CC)O[C@@H]1C=C(C(=O)O)C[C@H](NC(=O)NCc2ccc(OC)cc2)[C@H]1NC(C)=O
- inhibition [1]: inactive
- inhibition [2]: 36.5%

Compound: CCC(CC)[C@H](NC(C)=O)[C@@H]1[C@H](O)[C@@H](C(=O)O)C[C@H]1NC(=N)N [PERAMIVIR ANHYDROUS]
- bioavailability [11]: 2.5%

Compound: CCC(CC)O[C@@H]1C=C(C(=O)O)C[C@H](NC(=S)N(C(C)C)C(C)C)[C@H]1NC(C)=O
- inhibition [1]: 20%
- inhibition [2]: 80%

Compound: CCC(CC)O[C@@H]1C=C(C(=O)O)C[C@H](NC(=S)Nc2ccc(C)c(C)c2)[C@H]1NC(C)=O
- inhibition [1]: 15.3%
- inhibition [2]: 52.4%

Compound: CC(C)[N+](C)(CCOC(=O)C1c2ccccc2Oc2ccccc21)C(C)C.[Br-] [PROPANTHELINE BROMIDE]
- Stabilty [12]: 100%
- remaining at 10 min (in vitro [13]): 68.2%

Compound: CCC(CC)O[C@@H]1C=C(C(=O)O)C[C@H](NC(=S)NCc2ccc(F)cc2)[C@H]1NC(C)=O
- inhibition [1]: inactive
- inhibition [2]: 21%

Compound: CCC(CC)O[C@@H]1C=C(C(=O)O)C[C@H](NC(=S)NC)[C@H]1NC(C)=O
- IC50 ([3]; read-out: IC50): 18600 nM

Compound: CCC(CC)O[C@@H]1C=C(C(=O)O)C[C@H](NC(=S)NCc2cccc(F)c2)[C@H]1NC(C)=O
- inhibition [1]: inactive
- inhibition [2]: 28.1%

Compound: CCC(CC)O[C@@H]1C=C(C(=O)O)C[C@H](NC(=S)NCc2ccc(Br)cc2)[C@H]1NC(C)=O
- inhibition [1]: 17%
- inhibition [2]: 59.6%

Compound: CCC(CC)O[C@@H]1C=C(C(=O)O)C[C@H](NC(=N)N)[C@H]1NC(C)=O
- bioavailability [14]: 2.1%

Compound: CCC(CC)O[C@@H]1C=C(C(=O)O)C[C@H](NC(=O)Nc2ccccc2)[C@H]1NC(C)=O
- inhibition [1]: 17.6%
- inhibition [2]: 32.6%

Compound: CCC(CC)O[C@@H]1C=C(C(=O)O)C[C@H](NC(N)=O)[C@H]1NC(C)=O
- IC50 ([3]; read-out: IC50): 254 nM
- IC50 [4]: 169 nM
- AUC at 24 h [5]: 23200 ng·h/mL
- AUC at 24 h [15]: 10300 ng·h/mL
- Tmax [16]: 0.75 h
- Cmax [17]: 3670 ng/mL
- half-life [18]: 9.95 h
- F [6]: 100%
- bioavailability [19]: 8.8%
- IC50 [7]: 8700 nM
- Stabilty [12]: 100%
- Stabilty [20]: 122.6%
- half-life at 24 h (in vivo): 2.07 h
- remaining at 1 h (in vitro [21]): 100%
- half-life at 1 h (in vitro [22]): > 2.42 h
- remaining at 1 h (in vitro [23]): 85.5%
- half-life at 1 h (in vitro [24]): > 2.42 h
- remaining at 1 h (in vitro [25]): 99.1%
- half-life at 1 h (in vitro [26]): > 2.42 h
- remaining at 10 min (in vitro [13]): 101%
- remaining at 0.5 h (in vitro [27]): 99.1%
- remaining at 1 h (in vitro [28]): 102%

Compound: CCC(CC)O[C@@H]1C=C(C(=O)O)C[C@H](NC(=O)N2CCCCC2)[C@H]1NC(C)=O
- inhibition [1]: 25.6%
- inhibition [2]: 56.4%

Compound: CCC(CC)O[C@@H]1C=C(C(=O)O)C[C@H](NC(=O)Nc2cccc(Br)c2)[C@H]1NC(C)=O
- IC50 ([3]; read-out: IC50): 16900 nM

Compound: CCC(CC)O[C@@H]1C=C(C(=O)O)C[C@H](NC(=O)NCCc2ccccc2)[C@H]1NC(C)=O
- inhibition [1]: inactive
- inhibition [2]: 17.7%

Compound: CCC(CC)O[C@@H]1C=C(C(=O)O)C[C@H](NC(=O)N(C(C)C)C(C)C)[C@H]1NC(C)=O
- inhibition [1]: 32.3%
- inhibition [2]: 63.1%

Compound: CO[C@@H]([C@@H]1OC(C(=O)O)=C[C@H](NC(=N)N)[C@H]1NC(C)=O)[C@H](O)CO
- bioavailability [14]: 3.5%

Compound: CCC(CC)O[C@@H]1C=C(C(=O)O)C[C@H](NC(=O)N(C)C)[C@H]1NC(C)=O
- IC50 ([3]; read-out: IC50): 4830 nM

Compound: CCC(CC)O[C@@H]1C=C(C(=O)O)C[C@H](NC(=O)NCc2ccccc2)[C@H]1NC(C)=O
- inhibition [1]: 6.8%
- inhibition [2]: 35.1%

Compound: CCC(CC)O[C@@H]1C=C(C(=O)O)C[C@H](NC(=O)Nc2cc(OC)c(OC)c(OC)c2)[C@H]1NC(C)=O
- inhibition [1]: inactive
- inhibition [2]: 16.4%

Compound: CCC(CC)O[C@@H]1C=C(C(=O)O)C[C@H](NC(=O)NC(C)C)[C@H]1NC(C)=O
- inhibition [1]: 8.3%
- inhibition [2]: 32.3%

Compound: CCC(CC)O[C@@H]1C=C(C(=O)O)C[C@H](NC(N)=S)[C@H]1NC(C)=O
- inhibition [1]: 16.9%
- inhibition [2]: 51.3%

Compound: CCC(CC)O[C@@H]1C=C(C(=O)O)C[C@H](NC(=S)NC2CC2)[C@H]1NC(C)=O
- inhibition [1]: 8.7%
- inhibition [2]: 29.2%

Compound: O=C(O)Cc1ccccc1Nc1c(Cl)cccc1Cl [DICLOFENAC]
- half-life at 1 h (in vitro [22]): 0.735 h
- half-life at 1 h (in vitro [24]): 0.2 h
- half-life at 1 h (in vitro [26]): 0.195 h

Compound: CCC(CC)O[C@@H]1C=C(C(=O)O)C[C@H](NC(=O)Nc2cccc([N+](=O)[O-])c2)[C@H]1NC(C)=O
- inhibition [1]: 6.5%
- inhibition [2]: 36.9%
